Read-outs that look alike come from different tables or passages of the source.
Legend:
[1] = test system: human pulmonary arterial smooth muscle cells from patients with idiopathic pulmonary arterial hypertension (IPAH HPASMC); experiment: IPAH HPASMC proliferation assay; type: cell-based; conditions: for inhibition at 1 µM: Homo sapiens; for inhibition at 1 µM / effect on proliferation (in words) / inhibition of proliferation normalized to FBS-induced growth / effect of combined treatment versus single agents (in words): IPAH HPASMC; for effect on proliferation (in words): concentrations up to 1 uM
Experimental: (§1) Primary cultures of human pulmonary arterial smooth muscle cells were derived from distal blood vessels taken from lungs harvested from patients with idiopathic pulmonary arterial hypertension (IPAH) who had been treated with iloprost or a combination of epoprostenol and bosentan for at least 1.4 years. Cells were cultured for 24 hours in 6-well plates in a solution of human smooth muscle basal medium (SMBM; TCS Cellworks, UK) with 9% fetal bovine serum (FBS; Invitrogen, US) and penicillin-streptomycin (PenStrep; 50 units/mL; Invitrogen, US). The incubating solution was then changed to PenStrep in SMBM and the cells were allowed to incubate for another 48 hours. Test compounds were administered to the test wells as DMSO solutions with FBS (FBS and DMSO or SMBM were administered to the control wells). After 96 hours of incubation, the cells were trypsinized (0.05% trypsin/EDTA; Invitrogen, US) and 20 uL of cell suspension was added to 20 uL of Accustain solution T and Accustain solution N (Labtech, UK). The cells were counted and their viability assessed using an ADAM Automated Cell Counter (Digital Bio, Korea). Results were expressed in cell number per mL and percent growth compared to FBS-induced growth alone.

[2] = Fibroblast proliferation assay; type: cell-based, human; conditions: Homo sapiens, Fibroblast, read-out: inhibition of proliferation normalized to FBS-induced growth
Experimental: as §1
(§2) Using the procedure described in Example 1, primary cultures of human lung fibroblasts were derived from lungs harvested from patients with ideopathic pulmonary fibrosis (IPF) with secondary pulmonary arterial hypertension (PAH) who had previously been treated with epoprostenol, bosentan, and/or steroids. Treprostinil sodium was tested in these cells under the conditions described in Example 1 at concentrations of 1 pM, 10 pM, 100 pM, 1 nM, 10 nM, 100 nM, and 1 uM. The experiment was repeated four times and the results were averaged.

[3] = test system: human lung fibroblasts from patients with ideopathic pulmonary fibrosis (IPF) with secondary pulmonary arterial hypertension (PAH); experiment: Fibroblast proliferation assay; type: cell-based; conditions: for effect on proliferation (in words): lung fibroblasts from IPF patients with secondary PAH, 1 pM to 1 uM
Experimental: as §1, §2

[4] = test system: human pulmonary arterial smooth muscle cells from healthy patients (normal HPASMC); experiment: Normal HPASMC proliferation assay; type: cell-based; conditions: for inhibition at 1 µM: Homo sapiens, read-out: inhibition of proliferation normalized to FBS-induced growth; for effect on proliferation (in words): normal HPASMC, 1 pM to 1 uM
Experimental: as §1
As a control, primary cultures of human pulmonary arterial smooth muscle cells were derived from distal blood vessels taken from lungs harvested from healthy patients according to procedure described in Example 1. Treprostinil sodium was tested in these cells under the conditions described in Example 1 at concentrations of 1 pM, 10 pM, 100 pM, 1 nM, 10 nM, 100 nM, and 1 uM. The experiment was repeated four times and the results were averaged.

[5] = 1 uM test compound, 96 hours incubation, cell count, read-out: inhibition of proliferation normalized to FBS-induced growth
[6] = 1 uM test compound, 96 hours incubation, cell count

## CCCC[C@@H](NC(=O)[C@@H](Cc1cn(C(=O)OC)c2ccccc12)NC(=O)[C@H](CC(C)(C)C)NC(=O)N1[C@H](C)CCC[C@@H]1C)C(=O)O [BQ788, reference compound]
[1]; [5]
  inhibition at 1 µM: ~20%
[1]
  effect on proliferation (in words): inhibited proliferation of IPAH cells at higher concentrations

## Cc1ccc(C(=O)N(CCCN)[C@@H](c2oc3cc(Cl)ccc3c(=O)c2Cc2ccccc2)C(C)C)cc1 [Compound A, N-(3-Aminopropyl)-N-[(R)-(1-3-benzyl-7-chloro-4-oxo-4H-chromen-2-yl)-2-methyl-propyl]-4-methyl-benzamide]
[1]; [6]
  inhibition of proliferation normalized to FBS-induced growth: approximately 70%
[1]
  effect on proliferation (in words): inhibited proliferation of IPAH cells in a dose dependent manner

## CC(C)Oc1ccc(C(=O)N[C@H](CNC(=O)CN(C)C)Cc2ccc(-c3cn4cccc([C@H](C)O)c4n3)cc2)cc1Cl [Compound B, 3-Chloro-N-{(1S)-2-[(N,N-dimethylglycyl)amino]-1-[(4-{8-[(1S)-1-hydroxyethyl]imidazo[1,2-c]pyridin-2-yl}phenyl)methyl]ethyl}-4-[(1-methylethyl)oxy]benzamide]
[1]; [6]
  inhibition of proliferation normalized to FBS-induced growth: approximately 95%
[1]
  effect on proliferation (in words): inhibited proliferation of IPAH cells in a dose dependent manner

## COC(c1ccccc1)(c1ccccc1)[C@H](Oc1nc(C)cc(C)n1)C(=O)O [ambrisentan, reference compound]
[1]; [5]
  inhibition at 1 µM: ~25%

## COc1ccccc1Oc1c(NS(=O)(=O)c2ccc(C(C)(C)C)cc2)nc(-c2ncccn2)nc1OCCO [bosentan, reference compound]
[1]; [5]
  inhibition at 1 µM: ~20%
[1]
  effect on proliferation (in words): inhibited proliferation of IPAH HPASMC cells at higher concentrations

## CC#CCC(C)[C@H](O)/C=C/[C@@H]1[C@H]2C/C(=C/CCCC(=O)O)C[C@H]2C[C@H]1O (stereo partly drawn) [iloprost, reference compound]
[1]; [5]
  inhibition at 1 µM: ~40%
[1]
  effect on proliferation (in words): inhibited proliferation of IPAH HPASMC cells in a dose dependent manner

## CS(=O)(=O)O.Cc1ccc(C(=O)N(CCCN)[C@@H](c2nc3cc(Cl)ccc3c(=O)n2Cc2ccccc2)C(C)C)cc1 [ispinesib mesylate, N-(3-aminopropyl)-N-[(1R)-1-(3-benzyl-7-chloro-4-oxo-3,4-dihydroquinazolin-2-yl)-2-methylpropyl]-4-methylbenzamide monomethanesulfonate]
[1]; 96 h, read-out: inhibition of proliferation normalized to FBS-induced growth, 1 uM test compound, 96 hours incubation, cell count
  inhibition at 1 µM: ~80%
[1]; read-out: inhibition of proliferation normalized to FBS-induced growth, combination, 1 uM ispinesib mesylate and 10 nM treprostinil sodium
  inhibition at 1 µM: ~90%
[1]; read-out: inhibition of proliferation normalized to FBS-induced growth, combination, 1 uM ispinesib mesylate and 100 nM BQ788
  inhibition at 1 µM: ~75%
[1]; read-out: inhibition of proliferation normalized to FBS-induced growth, combination, 1 uM ispinesib mesylate and 100 nM ambrisentan
  inhibition at 1 µM: ~80%
[1]; read-out: inhibition of proliferation normalized to FBS-induced growth, combination, 1 uM ispinesib mesylate and 100 nM bosentan
  inhibition at 1 µM: ~99%
[1]; read-out: inhibition of proliferation normalized to FBS-induced growth, combination, 1 uM ispinesib mesylate, 100 nM ambrisentan and 100 nM BQ788
  inhibition at 1 µM: ~95%
[1]
  effect on proliferation (in words): inhibited proliferation of IPAH cells in a dose dependent manner
[1]; comparison of Examples 9, 16 and 18
  potency in IPAH HPASMCs and fibroblasts compared with normal HPASMCs (in words): significantly more potent at inhibiting proliferation of IPAH HPASMCs and fibroblasts than normal HPASMCs
[1]; ispinesib mesylate (1 pM to 1 uM) with 10 nM treprostinil sodium
  effect of combined treatment versus single agents (in words): enhanced the antiproliferative effects of either agent alone
[1]; ispinesib mesylate (1 pM to 1 uM) with 100 nM bosentan
  effect of combined treatment versus single agents (in words): enhanced the antiproliferative effects of either agent alone
[2]
  inhibition at 1 µM: ~75%
[3]; lung fibroblasts derived from IPF patients with secondary PAH
  potency compared with treprostinil sodium (in words): significantly more potent than treprostinil sodium
[3]
  effect on proliferation (in words): inhibited proliferation of fibroblasts in a dose dependent manner
[4]
  inhibition at 1 µM: ~55%
  effect on proliferation (in words): inhibited proliferation of fibroblasts in a dose dependent manner
[4]; normal HPASMCs
  potency compared with treprostinil sodium (in words): slightly more potent than treprostinil sodium

## CCCCC[C@H](O)CC[C@@H]1[C@H]2Cc3cccc(OCC(=O)O)c3C[C@H]2C[C@H]1O [treprostinil sodium, reference compound]
[1]; [5]
  inhibition at 1 µM: ~60%
[1]
  effect on proliferation (in words): inhibited proliferation of IPAH HPASMC cells in a dose dependent manner
[2]; 1 uM test compound, lung fibroblasts from IPF patients with secondary PAH
  inhibition at 1 µM: ~45%
[3]
  effect on proliferation (in words): inhibited proliferation of fibroblasts at higher concentrations
[4]; 1 uM test compound, normal HPASMC from healthy patients
  inhibition at 1 µM: ~35%
[4]
  effect on proliferation (in words): inhibited normal HPASMC proliferation at higher concentrations
